For assay [1], the system named is CSE. As to the kind of experiment: Western blot of CSE protein in left ventricle. Type of assay: in vivo, SD rats. As to conditions: MI rats, 50 mg/Kg/day, p<0.01. The source says: (§1) Animals were assigned and prepared the same as in Example 7, and dosages of SPRC and SAC were used the same in this example as in Example 7.
A general note: Immunoblotting shows a protein as a band on a membrane.

The subject of assay [2] is H9c2 cells. As to the kind of experiment: Mn-SOD activity of H9c2 cells injured by H2O2. Type of assay: cell-based. As to conditions: H2O2 injured H9c2; SPRC Low Dose 10^−7 mol/L. On the procedure:
(§2) H9c2 cells were cultured same as Example 12, the cells were then divided into the groups same as Example 12.
The cells were lysed under sterilized condition, and lipid peroxidation experiments on the samples were performed. […] The effect of SPRC could be blocked by PAG, indicating SPRC mediates its effect on H9c2 cell by way of endogenous H2S.

Another assay concerns Bcl-2 mRNA. Kind of assay: RT-PCR of Bcl-2 mRNA in left ventricle. The note with it: MI rats, 50 mg/Kg/day, p>0.05. It is filed as in vivo, SD rats.
Source text: as §1
To further verify the effects of SPRC and SAC, the expressions of Bcl-2, Bax and CSE mRNA were accessed by RT-PCR (FIG. 17). An isoform of the CSE gene was detected (GenBank; access no. AY641456). The relative amounts of CSE mRNA in Left ventricular subjected to MI were increase 3.3-fold and 1.5-fold following SPRC and SAC exposure as compared to the MI group.

A further assay relates to Bax. As to the kind of experiment: Western blot of Bax protein in left ventricle. It is filed as in vivo, SD rats. The note with it: MI rats, 50 mg/Kg/day, p<0.01.
Source text: as §1

Assay [3] concerns rats following MI injury. Kind of assay: Infarct size after TTC staining in rats following MI injury. Type of assay: in vivo, SD rats. The note with it: 50 mg/Kg/day intraperitoneal, 7 days before and 2 days after ligation, 48 h after surgery, saline 36.0±1.3%. On the procedure: (§3) SPRC and SAC were dissolved in saline (vehicle). Male SD rats (weight 200-250 g) were randomly assigned to […] treatment groups: group (1) Sham group: Sham-treated with saline (n=4), (2) Sham+SPRC group: Sham-treated with SPRC (50 mg/Kg/day) (n=4), (3) Sham+SAC group: Sham-treated with SAC (50 mg/Kg/day) (n=4), (4) MI group: MI treated with saline (n=8), (5) MI+SPRC group: MI treated with SPRC (50 mg/Kg/day) (n=8), (6) MI+SAC group: MI treated with SAC (50 mg/Kg/day) (n=8). Rats were pre-treated for seven days with each SAC analogues respectively via an intraperitoneal injection once daily before they were used for MI model studies. […] Briefly, the rats were anesthetized with 7% choral hydrate (60 mg/kg intraperitoneal injection), endotracheally intubated and mechanically ventilated with room air, respiratory rate 100 breaths/min, tidal volume 2.5 ml with a rodent ventilator (DHX-150, China). ECG was recorded in the anaesthetized animal for a period of one minute using the Animal Mflab200 amplifier (Produced in China). A left thoracotomy was performed and the third intercostal space was exposed. […] Then incisions were sutured and the chests were closed. […] Forty eight hours after the surgery, ECG was recorded for each rat in each group. […] To evaluate the effect of SPRC and SAC on MI, infarct size were measured after TTC staining (FIG. 12).

The target in assay [4] is T1, CSE (Rattus norvegicus, UniProt P18757).
T1 construct: from tissue; host or cells: rat left ventricle (homogenate), myocardial infarction model
T1 sequence (P18757 whole entry): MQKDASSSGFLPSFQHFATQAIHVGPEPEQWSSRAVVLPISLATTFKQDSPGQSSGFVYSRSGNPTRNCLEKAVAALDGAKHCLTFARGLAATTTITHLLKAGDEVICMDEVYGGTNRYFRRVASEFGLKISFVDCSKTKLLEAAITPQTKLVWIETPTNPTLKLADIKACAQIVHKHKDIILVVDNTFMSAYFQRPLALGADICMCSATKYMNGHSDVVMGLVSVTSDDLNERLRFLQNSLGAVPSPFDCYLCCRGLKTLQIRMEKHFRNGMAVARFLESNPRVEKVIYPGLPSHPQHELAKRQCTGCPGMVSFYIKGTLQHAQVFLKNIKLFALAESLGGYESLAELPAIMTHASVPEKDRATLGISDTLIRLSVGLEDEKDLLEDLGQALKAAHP
Kind of assay: Left ventricular CSE activity in tissue homogenates of rats. It is filed as in vivo, SD rats. The note with it: 50 mg/Kg/day; for CSE activity: left ventricle. On the procedure: as §1
The plasma levels of H2S in each treatment group were determined since CSE mediates the endogenous production of H2S in mammals. Plasma H2S concentrations in MI group rats at 48 h after MI induction were 34.7±5.6 μM (n=8). […] Left ventricular CSE activity was analyzed in the tissue homogenates from each treatment group (n=6). CSE activity was 1.58±0.15 μmol/g protein/hr in left the ventricular tissues in MI group and 2.19±0.32 μmol/g protein/hr in the MI+SAC treated rats.
SPRC administered rats had the highest CSE activity of 2.58±0.07 μmol/g protein/hr (p<0.01) (FIG. 15B). This observation correlated with the observed increases in H2S concentrations in the same treatment groups.

Assay [5] concerns rats following MI injury. Kind of assay: ECG in rats following MI injury. It is filed as in vivo, SD rats. As to conditions: 50 mg/Kg/day, day 10, 48 hr after the induction of MI. On the procedure:
as §3

For assay [6], the system named is H9c2 cells. As to the kind of experiment: Apoptosis of H9c2 cells, Hoechst and PI double stain. It is filed as cell-based. As to conditions: H2O2 injured H9c2; Hoechst 33342 and PI double stain. On the procedure: as §2
Cells were washed in PBS and then stained with Hoechst 33342 (10 μg/ml) and propidium iodide (10 μg/ml) for 10 min at 37° C. Cells were washed again with PBS and fixed with 3.7% paraformaldehyde (v/v). Each field of cells was photographed twice (magnification, ×400), using appropriate filters to examine and compare Hoechst 33342 and PI fluorescence staining in the same cells. […]. Apoptosis is of great damage to the structure and the function of the heart, which leads to heart failure.

Regarding `C#CCSC[C@H](N)C(=O)O` [SPRC, S-propargyl-cysteine], in the assay on CSE [1], the CSE protein expression entry was “up-regulated”. In addition, the “Mn-SOD Activity” value in the assay with H9c2 cells [2] came to 8.75 ± 0.68 U/mgprot. In addition, the Bcl-2 gene expression result in the assay with Bcl-2 mRNA is reported as “no significant differences”. The Bax protein levels entry in the assay on Bax was “down-regulated”. Besides, the “infarct size/total area of myocardium” value in the assay with rats following MI injury [3] is 20.8±2.4%. Further, the CSE activity turned out to be 2.58 ± 0.07 μM/mgprot on CSE [4] (MI rats) and 2.41 ± 0.12 μM/mgprot at CSE [4] (Sham rats). Moreover, the “Left ventricular CSE activity” value on CSE [4] (MI rats, left ventricular tissue homogenates, MI group 1.58±0.15) was 2.58±0.07 μmol/g protein/hr. Also, the “ST-segment elevation in ECG” value in the assay on rats following MI injury [5] is “less elevated ST-segment”. In addition, in the assay on H9c2 cells [6], the “apoptosis of H9c2 cells” value was “effective on inhibiting apoptosis of H9c2 cells”.

These data come from US8623919B2, “Method of synthesizing S-allyl-cysteine analogues and their therapeutic application in treating myocardial infarction” (Fudan University, priority 2007, dated 2014).
